Consider 1 molecule from article PMC7296167, “SrrB, a Pseudo-Receptor Protein, Acts as a Negative Regulator for Lankacidin and Lankamycin Production in Streptomyces rochei” (Frontiers in Microbiology, 2020).

For one test, the target named is T1, SrrA (Streptomyces rochei, UniProt Q83X22).
T1 construct: recombinant, overexpressed in E. coli, prepared as in Yamamoto et al. 2008
T1 sequence (Q83X22 1-222): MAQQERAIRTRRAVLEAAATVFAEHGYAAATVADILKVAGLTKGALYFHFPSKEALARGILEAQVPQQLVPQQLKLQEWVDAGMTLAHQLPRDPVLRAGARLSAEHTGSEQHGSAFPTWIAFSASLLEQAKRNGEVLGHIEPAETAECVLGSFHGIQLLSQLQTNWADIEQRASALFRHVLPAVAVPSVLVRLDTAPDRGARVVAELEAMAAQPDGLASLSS
The experiment in a line: gel shift assay, dissociation from […]-labelled srrB probe B1 and srrY probe Y1. In kind it is binding. The settings on record: […] SRB1 on probe B1, concentration series on probe Y1; […] SrrA, […] probe, […] C, pH […]. A general note: Mobility shift assays separate free from complexed probe on a gel.

The target of another test is T2, SrrB (Streptomyces rochei, UniProt Q83X25).
T2 construct: pET32b(+) His6 fusion from E. coli BL21(DE3)pLysS; N-terminal tag removed with enterokinase
T2 sequence (Q83X25 1-228): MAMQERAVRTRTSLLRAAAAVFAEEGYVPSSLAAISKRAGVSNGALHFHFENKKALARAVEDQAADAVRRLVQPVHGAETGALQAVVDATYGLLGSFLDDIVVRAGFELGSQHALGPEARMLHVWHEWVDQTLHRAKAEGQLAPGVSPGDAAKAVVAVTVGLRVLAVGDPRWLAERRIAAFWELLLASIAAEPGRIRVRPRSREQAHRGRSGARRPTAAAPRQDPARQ
The experiment in a line: gel shift assay, dissociation from […]-labelled srrY promoter probe Y1. The class given is binding. As to conditions: 0.5 nM probe Y1, 2,000 nM SrrB, 26 C, pH 8.0; DNA release read-out.

As for `CC1=C([C@H](O)CCCCC(=O)CC(C)C)C(=O)OC1O` (some centres unmarked) [compound 7, SRB1], on SrrA, the “gel shift assay, dissociation from 32P-labelled srrB probe B1 and srrY probe Y1” value is “Addition of SRB led to dissociation of SrrA from probe B1”. Also, the “concentration required for dissociation” value at SrrB is 1 mM.
